Data reported in US20090286813A1, “Thioxanthine Derivatives and Their Use as Inhibitors of MPO” (ASTRAZENECA AB, priority 2006, published 2009).

Target: T1, human MPO (Homo sapiens, UniProt P05164)
T1 sequence (P05164 49-745): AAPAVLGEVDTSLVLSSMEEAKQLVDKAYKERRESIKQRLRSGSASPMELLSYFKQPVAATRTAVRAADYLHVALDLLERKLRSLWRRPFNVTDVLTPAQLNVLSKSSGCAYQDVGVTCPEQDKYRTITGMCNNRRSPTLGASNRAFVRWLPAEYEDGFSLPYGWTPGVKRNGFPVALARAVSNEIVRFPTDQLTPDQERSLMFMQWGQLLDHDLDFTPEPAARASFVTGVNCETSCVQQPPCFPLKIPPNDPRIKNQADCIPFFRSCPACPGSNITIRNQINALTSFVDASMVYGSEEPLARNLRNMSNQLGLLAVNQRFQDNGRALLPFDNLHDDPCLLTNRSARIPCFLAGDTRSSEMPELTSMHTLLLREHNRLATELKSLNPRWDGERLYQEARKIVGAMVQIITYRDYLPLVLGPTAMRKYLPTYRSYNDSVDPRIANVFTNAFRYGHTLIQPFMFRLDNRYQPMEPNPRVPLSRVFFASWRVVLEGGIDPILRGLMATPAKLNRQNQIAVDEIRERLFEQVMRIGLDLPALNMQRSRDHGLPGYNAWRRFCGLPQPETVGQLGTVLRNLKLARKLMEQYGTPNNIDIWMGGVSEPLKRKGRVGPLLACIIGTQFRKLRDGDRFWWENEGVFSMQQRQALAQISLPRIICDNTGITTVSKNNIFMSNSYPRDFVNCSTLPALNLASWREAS
Test: MPO inhibition screen (TMB oxidation, absorbance)
Assay type: biochemical
Conditions: in the presence of tyrosine (final concentration 8 μM); human MPO 2.5 nM
Protocol: Methods for the determination of MPO inhibitory activity are disclosed in patent application WO 02/090575. The pharmacological activity of compounds according to the invention was tested in the following screen in which the compounds were either tested alone or in the presence of added tyrosine:
Assay buffer: 20 mM sodium/potassium phosphate buffer pH 6.5 containing 10 mM taurine and 100 mM NaCl.
Developing reagent: 2 mM 3,3′,5,5′-tetramethylbenzidine (TMB), 200 μM KI, 200 mM acetate buffer pH 5.4 with 20% DMF.
To 10 μl of diluted compounds in assay buffer, 40 μl of human MPO (final concentration 2.5 nM), with or without 20 μM tyrosine (final concentration, if present, 8 μM), was added and the mixture was incubated for 10 minutes at ambient temperature. Then 50 μl of H2O2 (final concentration 100 μM), or assay buffer alone as a control, were added. After incubation for 10 minutes at ambient temperature, the reaction was stopped by adding 10 μl 0.2 mg/ml of catalase (final concentration 18 μg/ml). The reaction mixture was left for an additional 5 minutes before 100 μl of TMB developing reagent was added. The amount of oxidised 3,3′,5,5′-tetramethylbenzidine formed was then measured after about 5 minutes using absorbance spectroscopy at about […]. IC50 values were then determined using standard procedures.

## O=c1[nH]c(=S)n(-c2cccc(OC(F)(F)F)c2)c2nc[nH]c12 [Example 3, 2-thioxo-3-[3-(trifluoromethoxy)phenyl]-1,2,3,7-tetrahydro-6H-purin-6-one]
  IC50: 2.75 µM

## O=c1[nH]c(=S)n(-c2cnc3ccccc3c2)c2nc[nH]c12 [Example 8, 3-quinolin-3-yl-2-thioxo-1,2,3,7-tetrahydro-6H-purin-6-one]
  IC50: 4.47 µM
